{"source": "patent US10758584B2", "about": "“Topical formulation for promoting wound healing” (Oneness Biotech Co. LTD, priority 2016, dated 2020)", "experiment": "clinical", "conditions": "human, in vivo", "procedure": "[…]. The PA and CA extracts in the topical formulation were prepared according to the methods described herein. The topical formulation is cream-based and further comprises cetostearyl alcohol (about 1.0-10% by weight, for example, about 3.5-6.5% by weight), white petrolatum and liquid petrolatum 350 cps (about 5%-30% by weight in total, for example, about 5-15% by weight in total), methyl paraben and propyl paraben (about 0.005% to 0.2% by weight in total, for example, 0.005-0.2% by weight in total), emulsifiers such as Span® 60 and Tween® 60 (about 0.5-10% by weight in total, for example, about 0.5-5% by weight in total), and one or more solvent such as propylene glycol (about 2-20% by weight, for example, about 4-10% by weight). The extracts were formulated in a cream-based topical formulation that additionally contains liquid petrolatum, propylene glycol, cetyl stearyl alcohol, white petrolatum, Span® 60, Tween® 60, propyl paraben, methyl paraben, and water.\nA total of 12 patients completed the study. Each subject received one dose of the cream formulation on Day 1 followed by the blood sampling collection, then twice per day from Day 2 to Day 13, and a further blood sampling collection was scheduled on Day 14 after the final dose. […]."}
{"smiles": "COc1ccc(-c2cc(=O)c3c(O)c(OC)c(OC)cc3o2)cc1", "note": "[salvigenin]", "values": [{"measurement": "concentration at 1 day", "result": "≤ 0.0124", "unit": "ng/mL"}, {"measurement": "concentration at 14 day", "result": "≤ 0.017", "unit": "ng/mL"}, {"measurement": "number of patients with detectable plasma concentrations", "setting": "1 day", "result": 2}, {"measurement": "number of patients with detectable plasma concentrations", "setting": "14 day", "result": 4}]}
